Data on eleven compounds can be found in publication PMC3340335, “Differential Scanning Fluorometry Signatures as Indicators of Enzyme Inhibitor Mode of Action: Case Study of Glutathione S-Transferase” (PLoS ONE, 2012).

Like-named read-outs stand apart in the source and are kept apart here. Bounds are passed on as bounds.

Experiment [1] addresses T1, SjGST (Schistosoma japonicum, UniProt P08515).
T1 construct: purchased GenScript (Piscataway, NJ)
The experiment can be described thus: biochemical. The following applies: for ΔTm at 200 µM / Difference in thermal shift between GSH-present (2 mM) and GSH-absent curves at top compound concentration: 200 µM compound; for ΔTm at 200 µM / Difference in thermal shift between GSH-present (2 mM) and GSH-absent curves across compound concentrations / Difference in thermal shift between GSH-present (2 mM) and GSH-absent curves at top compound concentration: 2 mM GSH versus no GSH; for ΔTm at 200 µM: read-out: Difference in thermal shift between GSH-present (2 mM) and GSH-absent curves at top compound concentration; for Thermal shift (ΔTm versus vehicle control) of SjGST: absence of GSH, top compound concentration, 200 µM, 1 µM SjGST; for Difference in thermal shift between GSH-present (2 mM) and GSH-absent curves across compound concentrations: across all concentrations up to 200 µM. It is filed as binding. On the procedure:
Compounds were diluted (1∶2, 7-points) in DMSO row-wise down to 10 µM in a 96-well polypropylene round bottom mother plate, with DMSO alone in the first column of each plate. […] The PCR plates were centrifuged at 1000 rpm for 10 s to ensure good mixing, and sealed with Optical-Quality Sealing Tape (Bio-Rad). […] The mid temperature of the protein thermal melt profiles, Tm, was determined using EXCEL-based custom calculation software available at (ftp://ftp.sgc.ox.ac.uk/pub/biophysics), and fitting of the data to the Boltzmann equation was performed using GraphPad Prism 4. The differences in Tm between vehicle control and compound-containing samples were calculated as thermal shift.

Experiment [2] concerns the target T1, SjGST. The experiment can be described thus: SjGST luciferase-coupled luminescence enzymatic assay (PBI 1155 substrate, 100 µM GSH). It is filed as biochemical. The note with it: for inhibition at 58 µM: read-out: % Inhibition at 58 μM against SjGST. The procedure:
Compound inhibitory activities were evaluated using a previously reported GST enzymatic assay. Three µl of reagents (5 nM final concentration of SjGST (or buffer serving as a no-enzyme control) plus 100 µM final concentration of GSH) were dispensed into 1536-well Greiner white solid-bottom assay plates. Compounds (23 nL) were transferred via Kalypsys pintool equipped with 1,536-pin array. The plates were incubated at room temperature for 15 min before the addition of 20 µM substrate PBI 1155 to initiate the reaction. The plates were centrifuged at 1000 rpm for 15 s and incubated at room temperature for 40 min before the addition 4 µl luciferin detection reagent followed by another 15-s centrifugation at 1000 rpm and 15-min incubation. The plates were then read on ViewLux high-throughput CCD imager (PerkinElmer, Waltham, MA) with a clear emission filter and under standard luminescence settings. Percent inhibition was calculated based on the enzyme-containing and no-enzyme controls using Excel and GraphPad Prism 4.

For the next experiment, the target named is T2, hGST A1-1 (Homo sapiens, UniProt P08263).
T2 construct: purchased Oxford Biomedical Research (Oxford, MI)
T2 sequence (P08263 1-222): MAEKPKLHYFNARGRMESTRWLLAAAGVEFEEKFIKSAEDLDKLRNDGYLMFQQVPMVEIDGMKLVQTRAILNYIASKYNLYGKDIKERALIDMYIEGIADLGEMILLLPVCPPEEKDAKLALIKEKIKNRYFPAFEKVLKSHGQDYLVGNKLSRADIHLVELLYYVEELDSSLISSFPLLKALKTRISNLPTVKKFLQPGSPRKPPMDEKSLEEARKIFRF
The experiment can be described thus: Thermal shift assay (DSF) with hGST A1-1. The experiment is classed as binding. The following applies: concentration-response, Fig. 7A-C. On the procedure:
(§1) Compounds were diluted (1∶2, 7-points) in DMSO row-wise down to 10 µM in a 96-well polypropylene round bottom mother plate, with DMSO alone in the first column of each plate. […] The PCR plates were centrifuged at 1000 rpm for 10 s to ensure good mixing, and sealed with Optical-Quality Sealing Tape (Bio-Rad). The plates were subsequently heated approximately 2 min after sample mixing, on an iQ5 thermal cycler at intervals of 1°C from 20 to 95°C, with a ramping rate of 6°C min^−1. The set-up of the filter configurations was customized to accommodate the optimal excitation and emission wavelengths for SYPRO Orange (Ex: 490/Em: 575 nm). The mid temperature of the protein thermal melt profiles, Tm, was determined using EXCEL-based custom calculation software available at (ftp://ftp.sgc.ox.ac.uk/pub/biophysics), and fitting of the data to the Boltzmann equation was performed using GraphPad Prism 4. The differences in Tm between vehicle control and compound-containing samples were calculated as thermal shift.
(§2) The study was subsequently extended to human GST isozymes by testing one representative compound from each category against hGST A1 and M1 (hGST P1 was not pursued due to the protein's lack of clear melt transition, data not shown).

A further experiment deals with T3, hGST M1-1 (Homo sapiens, UniProt P09488).
T3 construct: purchased Oxford Biomedical Research (Oxford, MI)
T3 sequence (P09488 1-218): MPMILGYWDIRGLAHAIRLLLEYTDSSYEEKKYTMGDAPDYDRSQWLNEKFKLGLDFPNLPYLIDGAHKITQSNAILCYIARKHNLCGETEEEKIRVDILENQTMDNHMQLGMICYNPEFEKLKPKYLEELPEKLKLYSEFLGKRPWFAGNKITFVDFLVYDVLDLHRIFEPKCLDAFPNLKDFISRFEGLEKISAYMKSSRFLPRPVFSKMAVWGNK
The experiment can be described thus: Thermal shift assay (DSF) with hGST M1-1. It is filed as binding. The following applies: concentration-response, Fig. 7D-F. The procedure: as §1, §2

Setting [3] is: 5 nM SjGST, 100 µM GSH, 20 µM PBI 1155, read-out: IC50 against SjGST.

T1 sequence (P08515 whole entry): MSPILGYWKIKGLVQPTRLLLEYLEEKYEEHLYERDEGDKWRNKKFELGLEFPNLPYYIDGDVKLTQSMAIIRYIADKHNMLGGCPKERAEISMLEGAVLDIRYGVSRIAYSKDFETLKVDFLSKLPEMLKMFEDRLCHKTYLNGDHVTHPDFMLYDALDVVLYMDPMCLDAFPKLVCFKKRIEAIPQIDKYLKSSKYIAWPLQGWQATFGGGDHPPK

With `NC(CCC(=O)NC(CSc1ccc(C(=O)OCCOCCOCCOCCOC(=O)c2ccc(SCC(NC(=O)CCC(N)C(=O)O)C(=O)NCC(=O)O)c([N+](=O)[O-])c2)cc1[N+](=O)[O-])C(=O)NCC(=O)O)C(=O)O` (stereo not shown) [Bis-(NB-GS)], on SjGST [1], the ΔTm at 200 µM came out at 1.2 °C and the “Thermal shift (ΔTm versus vehicle control) of SjGST” value came to 11.1 °C. In addition, the IC50 (as a rule, the midpoint of a concentration-inhibition curve) on SjGST [2] (setting [3]) was determined as 670 nM. The “Fold greater inhibitory potency of Bis-(NB-GS) versus NBD-GS” value at SjGST [2] (ratio of IC50 values, 0.67 µM versus 2.3 µM) is on record as “over 3 fold”.
For the compound `C=C(CC)C(=O)c1ccc(OCC(=O)O)c(Cl)c1Cl` [Ethacrynic acid, ethacrynic acid], the “Glutathione-dependency trend of thermal shift curves (with versus without 2 mM GSH)” value on hGST A1-1 and on hGST M1-1 was “diverging trend” in each case. Besides, the ΔTm at 200 µM at SjGST [1] was 11.5 °C. Besides, the “Thermal shift (ΔTm versus vehicle control) of SjGST” value at SjGST [1] worked out at 1.8 °C. Moreover, the IC50 on SjGST [2] (setting [3]) turned out to be 140 nM.
Consider `N[C@@H](CCC(=O)N[C@@H](CS)C(=O)NCC(=O)O)C(=O)O` [GSH, γ-Glu-Cys-Gly], for which the ΔTm at 2000 µM at SjGST [1] (2 mM GSH, at low compound concentrations, read-out: Enhancement in thermal shift baseline due to GSH) was around 4 °C.
Consider `O=c1c(O)c(-c2cc(O)c(O)c(O)c2)oc2cc(O)cc(O)c12` [Myricetin, myricetin], for which, at SjGST [1], the “Thermal shift (ΔTm versus vehicle control) of SjGST” value is “over 3 °C”; the “Difference in thermal shift between GSH-present (2 mM) and GSH-absent curves across compound concentrations” value was “approximately 4 °C”. On SjGST [2], this compound yielded an IC50 of 6600 nM.
As for `O=[N+]([O-])c1ccc(SCCCCCCCCO)c2nonc12` [NBD-8-OH], on SjGST [1], the ΔTm at 200 µM amounted to 10.5 °C and the “Thermal shift (ΔTm versus vehicle control) of SjGST” value is reported as “failed to display any significant thermal stabilization effect”. Moreover, the IC50 at SjGST [2] (setting [3]) was determined as 660 nM.
The like results for `NC(CCC(=O)NC(CSc1ccc([N+](=O)[O-])c2nonc12)C(=O)NCC(=O)O)C(=O)O` (stereo not shown) [NBD-GS] were, in that order, 4 °C, 5.9 °C and 2300 nM.
As to `O=c1c(O)c(-c2ccc(O)c(O)c2)oc2cc(O)cc(O)c12` [Quercetin, quercetin], the “Glutathione-dependency trend of thermal shift curves (with versus without 2 mM GSH)” value at hGST A1-1 and on hGST M1-1 was “parallel trend” throughout. Moreover, the “Thermal shift (ΔTm versus vehicle control) of SjGST” value at SjGST [1] is “over 3 °C”. For the same compound, on SjGST [1], the “Difference in thermal shift between GSH-present (2 mM) and GSH-absent curves across compound concentrations” value was “approximately 4 °C”. Further, the IC50 on SjGST [2] (setting [3]) worked out at 5000 nM.
Regarding `CCCCSC[C@H](NC(=O)CC[C@H](N)C(=O)O)C(=O)NCC(=O)O` [S-butyl GSH, S-butyl glutathione], the “Difference in thermal shift between GSH-present (2 mM) and GSH-absent curves at top compound concentration” value on SjGST [1] was 1.8 °C. The inhibition (usually the drop in the measured response relative to a control, in per cent) at 58 µM on SjGST [2] is 35%.
In the same order, the values of `CCCCCCSC[C@H](NC(=O)CC[C@H](N)C(=O)O)C(=O)NCC(=O)O` [S-hexyl GSH, S-hexyl glutathione] are 1.8 °C and 58%.
As for `CSC[C@H](NC(=O)CC[C@H](N)C(=O)O)C(=O)NCC(=O)O` [S-methyl GSH, S-methyl glutathione], the “Thermal shift (ΔTm versus vehicle control) of SjGST” value at SjGST [1] is below 2 °C. On SjGST [2] (tested up to 200 µM), the “Inhibition of SjGST at concentrations up to 200 µM” value is reported as “did not show detectable inhibition”.
On to `CCCCCCCCSC[C@H](NC(=O)CC[C@H](N)C(=O)O)C(=O)NCC(=O)O` [S-octyl GSH, S-octyl glutathione], for which the “Glutathione-dependency trend of thermal shift curves (with versus without 2 mM GSH)” value on hGST A1-1 and at hGST M1-1 was “converging trend” throughout. For the same compound, the “Difference in thermal shift between GSH-present (2 mM) and GSH-absent curves at top compound concentration” value on SjGST [1] was 0.45 °C. Further, the inhibition at 58 µM at SjGST [2] stood at 83%.
